Data taken from patent US5914339A, “Substituted 1,3-benzodioxoles” (American Home Products Corporation, priority 1997, dated 1999).
Counter-ions that a name gives are not always drawn. Like-named read-outs stand apart in the source and are kept apart here.

Legend:
plasma free fatty acids = test: Effects on plasma free fatty acid levels in rats; type: in vivo, rat; conditions: for ED50: Rattus norvegicus, 50 min, read-out: Rat Free Fatty Acid: ED50
Procedure: Rats respond to a single oral dose of β3 agonists by increasing plasma free fatty acids (FFA) in response to β3 receptor stimulation on the plasma membrane of the fat cell. 5-{2-[2-(3-Chloro-phenyl)-2-hydroxy-ethylamino]-propyl}-benzo[1,3]dioxole- 2,2-dicarboxylic acid diisopropyl ester (Standard 2) was used as a standard compound. All test compounds were dosed at 0.1 mg/kg and compared to the response by Standard 2.
1). Drugs were dissolved in DMSO at 10 mg/ml.
2). Twenty μl of the DMSO-drug solution was added to 10 mL methyl cellulose:tween-80 (0.5%:0.1%) for a final concentration of 20 μg/mL.
3). Methyl cellulose:tween-80 drug suspension was given via gavage (1 mL/200 g body weight; or 0.1 mg/kg) to rats and blood was collected 50 min later.
4). Plasma was analyzed for free fatty acids using a kit supplied by Biochemical Diagnostics Inc. (Brentwood, N.Y.).
5). Drug response was calculated from the formula below. [formula]
^b Elevation of plasma free fatty acids in rats, compounds tested at
0.1 mg/kg, results expressed as % of
5{2[2(3-Chloro-phenyl)-2-hydroxy-ethylaminopropylbenzo[1,3dioxole-2,2-dic
rboxylic acid diisopropyl ester response (78% increase) at 0.1 mg/kg.
ED50 (mg/kg) values determined for selected compounds.

[1] = target: human β2 adrenergic receptor (Homo sapiens, UniProt P07550); test: cell-based; conditions: for activation at 0.01 µM: 10 min, read-out: β2: % of isoproterenol activity (increase in cAMP)
Procedure: The activity of the test compounds on human β-adrenergic receptors was determined with Chinese hamster ovary (CHO) cells transfected with human β2, or β1 adrenergic receptors. Agonist activity is indicated by increased cAMP levels in the CHO cells. Selectivity of the test compounds for the β3 receptor was assessed by comparison with results in β2 and β1 adrenergic receptor transfected cells.
1). Chinese hamster ovary (CHO) cells transfected with human β2, or β1 adrenergic receptors were used in the assay.
2). Cells were grown to confluent conditions in 24 well plates.
3). Drugs were dissolved in DMSO at a concentration of 10 μM.
4). Cells were incubated with drug at 10 nM concentration for 10 min at 37° C.
5). Cell cAMP concentrations were assayed using a scintillation proximity assay kit from Amersham Corp., Chicago, Ill.
6). Activities for the test compounds are expressed as a percentage of the isoproterenol response.
Production of the CHO cells transfected with human β2, or β1 adrenergic receptors, and compound test procedures utilizing the CHO cells, are described by Emorine et al. in their article "Molecular Characterization of the Human Beta3 -Adrenergic Receptor", Science 1989, 245(8), 1118-1121 and by Muzzin et al. in the article "An Adipose Tissue-Specific Beta3 -Adrenergic Receptor", J. Biol. Chem.1991, 266, 24053-24058.
^a Human β receptors expressed in Chinese hamster ovary cells,
compounds tested at 10 nM, results expressed as % of isoproterenol
activity (increase in cAMP) at 10 μM. EC50 (μM) values
determined for selected compounds.

[2] = elevation of plasma free fatty acids, oral gavage, selected compounds
[3] = compounds tested at 10 nM, isoproterenol at 10 μM, CHO cells, 10 min at 37° C

With CC(Cc1ccc2c(c1)OC(C(=O)OC(C)C)(C(=O)OC(C)C)O2)NCC(O)c1cccc(Cl)c1 (stereo not shown) [5-{2-[2-(3-Chloro-phenyl)-2-hydroxy-ethylamino]-propyl}-benzo[1,3]dioxole-2,2-dicarboxylic acid diisopropyl ester, reference compound] the “increase of plasma free fatty acids” value (plasma free fatty acids; 0.1 mg/kg, rats) was 78%.

For CC(Cc1ccc2c(c1)OC(C(=O)OC(C)c1ccccc1)(C(=O)OC(C)c1ccccc1)O2)NCC(O)c1cccc(Cl)c1 (stereo not shown) [Example 16, 5-{2-[2-(3-Chloro-phenyl)-2-hydroxy-ethylamino]-propyl}-benzo[1,3]dioxole-2,2-dicarboxylic acid bis-(1-phenyl-ethyl) ester], the ED50 (plasma free fatty acids; [2]) was 0.128 mg/kg.

CC(Cc1ccc2c(c1)OC(C(=O)OCCOC(C)C)(C(=O)OCCOC(C)C)O2)NCC(O)c1cccc(Cl)c1 (stereo not shown) [Example 21, 5-{2-[2-(3-Chloro-phenyl)-2-hydroxy-ethylamino]-propyl}-benzo[1,3]dioxole-2,2-dicarboxylic acid bis-(2-isopropoxy-ethyl) ester] gave an ED50 (plasma free fatty acids; [2]) of 0.086 mg/kg and an activation at 0.01 µM [1, 3] of 2%.

Work on CC(Cc1ccc2c(c1)OC(C(=O)OCC[Si](C)(C)C)(C(=O)OCC[Si](C)(C)C)O2)NCC(O)c1cccc(Cl)c1 (stereo not shown) [Example 31, 5-{2-[2-(3-Chloro-phenyl)-2-hydroxy-ethylamino]-propyl}-benzo[1,3]dioxole-2,2-dicarboxylic acid bis-(2-trimethylsilanyl-ethyl) ester] yielded an ED50 (plasma free fatty acids; po) of 0.09 mg/kg and an activation at 0.01 µM ([1]; CHO) of 5%.

For CC(Cc1ccc2c(c1)OC(C(=O)OCC1CC1)(C(=O)OCC1CC1)O2)NCC(O)c1cccc(Cl)c1 (stereo not shown) [Example 38, 5-{2-[2-(3-Chloro-phenyl)-2-hydroxy-ethylamino]-propyl}-benzo[1,3]dioxole-2,2-dicarboxylic acid bis-cyclopropylmethyl ester], the ED50 (plasma free fatty acids; [2]) was 0.086 mg/kg and the EC50 ([1]; cAMP in CHO cells, selected compounds, read-out: β2: EC50) was 274 nM.

CC(Cc1ccc2c(c1)OC(C(=O)OCCc1ccsc1)(C(=O)OCCc1ccsc1)O2)NCC(O)c1cccc(Cl)c1 (stereo not shown) [Example 71, 5-{2-[2-(3-Chloro-phenyl)-2-hydroxy-ethylamino]-propyl}-benzo[1,3]dioxole-2,2-dicarboxylic acid bis 2-(3-Thienyl)ethyl-ester] gave an ED50 (plasma free fatty acids; [2]) of 0.076 mg/kg and an activation at 0.01 µM [1, 3] of 14%.

Molecule CCC(CC)COC(=O)C1(C(=O)OCC(CC)CC)Oc2ccc(C[C@@H](C)NC[C@H](O)c3cccc(Cl)c3)cc2O1 [Example 74, 5-{(2R)-2-[(2R)-2-(3-Chloro-phenyl)-2-hydroxy-ethylamino]-propyl}-benzo[1,3]dioxole-2,2-dicarboxylic acid bis-(2-ethylbutyl) ester] has an activation at 0.01 µM [1, 3] of 0%.

Work on C[C@H](Cc1ccc2c(c1)OC(C(=O)OCC13CC4CC(CC(C4)C1)C3)(C(=O)OCC13CC4CC(CC(C4)C1)C3)O2)NC[C@H](O)c1cccc(Cl)c1 (stereo partly drawn) [Example 77, 5-{(2R)-2-[(2R)-2-(3-Chloro-phenyl)-2-hydroxy-ethylamino]-propyl}-benzo[1,3]dioxole-2,2-dicarboxylic acid bis-adamantan-1-ylmethyl ester] yielded an activation at 0.01 µM [1, 3] of 5%.

Work on C[C@H](Cc1ccc2c(c1)OC(C(=O)O)(C(=O)OCC13CC4CC(CC(C4)C1)C3)O2)NC[C@H](O)c1cccc(Cl)c1 (stereo partly drawn) [Example 79, 5-{(2R)-2-[(2R)-2-(3-Chloro-phenyl)-2-hydroxy-ethylamino]-propyl}-benzo[1,3]dioxole-2,2-dicarboxylic acid adamantan-1-ylmethyl ester] yielded an activation at 0.01 µM [1, 3] of 0%.

With C[C@H](Cc1ccc2c(c1)OC(C(=O)OCC1CCCCO1)(C(=O)OCC1CCCCO1)O2)NC[C@H](O)c1cccc(Cl)c1 (stereo partly drawn) [Example 90, 5-{(2R)-2-[(2R)-2-(3-Chloro-phenyl)-2-hydroxy-ethylamino]-propyl}-benzo[1,3]dioxole-2,2-dicarboxylic aicd bis-(tetrahydro-pyran-2-ylmethyl) ester] the activation at 0.01 µM [1, 3] was 7%.

In the case of C[C@H](Cc1ccc2c(c1)OC(C(=O)OCC1CCCO1)(C(=O)OCC1CCCO1)O2)NC[C@H](O)c1cccc(Cl)c1 (stereo partly drawn) [Example 91, 5-{(2R)-2-[(2R)-2-(3-Chloro-phenyl)-2-hydroxy-ethylamino]-propyl}-benzo[1,3]dioxole-2,2-dicarboxylic aicd bis-(tetrahydro-furan-2-ylmethyl) ester], the activation at 0.01 µM [1, 3] is reported as 7%.

Molecule CCOCCOC(=O)C1(C(=O)O)Oc2ccc(C[C@@H](C)NC[C@H](O)c3cccc(Cl)c3)cc2O1 (stereo partly drawn) [Example 95, 5-{(2R)-2-[(2R)-2-(3-Chloro-phenyl)-2-hydroxy-ethylamino]-propyl}-benzo[1,3]dioxole-2,2-dicarboxylic acid (2-ethoxy-ethyl) ester] has an activation at 0.01 µM ([1]; CHO) of 0%.

Molecule C[C@H](Cc1ccc2c(c1)OC(C(=O)OCCc1cccc(Br)c1)(C(=O)OCCc1cccc(Br)c1)O2)NC[C@H](O)c1cccc(Cl)c1 [Example 96, 5-{(2R)-2-[(2R)-2-(3-Chloro-phenyl)-2-hydroxy-ethylamino]-propyl}-benzo[1,3]dioxole-2,2-dicarboxylic acid bis-[2-(3-bromo-phenyl)-ethyl]ester hydrochloride salt] has an activation at 0.01 µM ([1]; CHO) of 1%.

For Cc1cccc(CCOC(=O)C2(C(=O)OCCc3cccc(C)c3)Oc3ccc(C[C@@H](C)NC[C@H](O)c4cccc(Cl)c4)cc3O2)c1 [Example 97, 5-{(2R)-2-[(2R)-2-(3-Chloro-phenyl)-2-hydroxy-ethylamino]-propyl}-benzo[1,3]dioxole-2,2-dicarboxylic acid bis-(2-m-tolyl-ethyl) ester hydrochloride salt], the activation at 0.01 µM ([1]; CHO) was 4%.

For C=CCOC(=O)C1(C(=O)OCC=C)Oc2ccc(C[C@@H](C)NC[C@H](O)c3cccc(Cl)c3)cc2O1 [Example 98, 5-{(2R)-2-[(2R)-2-(3-Chloro-phenyl)-2-hydroxy-ethylamino]-propyl}-benzo[1,3]dioxole-2,2-dicarboxylic acid diallyl ester], the activation at 0.01 µM [1, 3] was 7%.

In the case of C[C@H](Cc1ccc2c(c1)OC(C(=O)OCC=Cc1ccccc1)(C(=O)OCC=Cc1ccccc1)O2)NC[C@H](O)c1cccc(Cl)c1 (stereo partly drawn) [Example 99, 5-{(2R)-2-[(2R)-2-(3-Chloro-phenyl)-2-hydroxy-ethylamino]-propyl}-benzo[1,3]dioxole-2,2-dicarboxylic acid bis-(3-phenyl-allyl)ester], the activation at 0.01 µM [1, 3] is reported as 16%.

With C[C@H](Cc1ccc2c(c1)OC(C(=O)OC1CCCCCCC1)(C(=O)OC1CCCCCCC1)O2)NC[C@H](O)c1cccc(Cl)c1 [Example 100, 5-{(2R)-2-[(2R)-2-(3-Chloro-phenyl)-2-hydroxy-ethylamino]-propyl}-benzo[1,3]dioxole-2,2-dicarboxylic acid dicyclooctyl ester] the activation at 0.01 µM [1, 3] was 2%.

Molecule C[C@H](Cc1ccc2c(c1)OC(C(=O)OC/C=C\COCc1ccccc1)(C(=O)OC/C=C\COCc1ccccc1)O2)NC[C@H](O)c1cccc(Cl)c1 [Example 101, 5-{(2R)-2-[(2R)-2-(3-Chloro-phenyl)-2-hydroxy-ethylamino]-propyl}-benzo[1,3]dioxole-2,2-dicarboxylic acid bis-(4-benzyloxy-but-2-enyl)ester] has an activation at 0.01 µM [1, 3] of 3%.

Work on C[C@H](Cc1ccc2c(c1)OC(C(=O)OCCCOCc1ccccc1)(C(=O)OCCCOCc1ccccc1)O2)NC[C@H](O)c1cccc(Cl)c1 [Example 104, 5-{(2R)-2-[(2R)-2-(3-Chloro-phenyl)-2-hydroxy-ethylamino]-propyl}benzo[1,3]dioxole-2,2-dicarboxylic acid bis-(3-benzyloxy-propyl)ester] yielded an activation at 0.01 µM [1, 3] of 2%.

“Carbonic acid 3-chloro-benzyl ester 2-(3-chloro-benzyloxycarbonyloxy)-4-{2-[2-(3-chloro-phenyl)-2-hydroxy-ethylamino]-propyl}-phenyl ester [Example 15]” was tested, and the “Rat Free Fatty Acid: elevation of plasma free fatty acids, % of diisopropyl ester (Standard 2) response” value (plasma free fatty acids; 0.1 mg/kg, gavage, blood collected 50 min later) was 46% and the “β2: % of isoproterenol activity (increase in cAMP)” value [1, 3] was 18%.
